The numbers were not newly measured in US20080131492A1, “Dosage forms for movement disorder treatment” (Spherics, Inc., priority 2006, published 2008), which cites them from elsewhere.

For this data set the following is noted: doses of 400 mg per day.

As to `C[C@@](Cc1ccc(O)c(O)c1)(NN)C(=O)O` [carbidopa], the adverse effects entry is reported as “fails to elicit adverse effects”.
